Results reported in article PMC7377239, “Cardiovascular Effects of Polychlorinated Biphenyls and Their Major Metabolites” (Environmental Health Perspectives, 2020).
Where two headings read alike, the source gives them in different places.

Experiments:
[1] = system: HUVECs; experiment: Tube formation (tubulogenesis) assay in HUVECs, 18 h; type: cell-based, human; details: Homo sapiens, HUVEC, 18 h, HUVEC; for activity at 0.1 µM: 0.10 µM
How it was run: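 HUVECs (passage 1–5) seeded on reduced-growth-factor basement membrane and exposed to compounds overnight at 37°C, 5% CO2, in 2× maintenance medium with 12.5 ng/mL VEGF; 0.5% DMSO vehicle. Calcein AM-stained tube networks imaged and analysed; vehicle-normalized readouts fit to four-parameter logistic, POD set at one SD of vehicle means.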

[2] = system: HUVECs; experiment: High-content imaging cytotoxicity in HUVECs, 24 h; type: cell-based, human; details: Homo sapiens, HUVEC, 24 h, HUVEC; for viability at 0.01 µM / activity at 0.01 µM / viability at 0.1 µM / activity at 0.1 µM / viability at 1 µM / activity at 1 µM / viability at 10 µM / activity at 10 µM / viability at 100 µM / activity at 100 µM: 0.00 µM = 100.00; for viability at 0.1 µM / activity at 0.1 µM: 0.10 µM
How it was run: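 HUVECs (passages 1–5) grown to monolayer over 3–5 d, then exposed 24 h at 37°C, 5% CO2; stained with Hoechst 33342, MitoTracker Orange and calcein AM and imaged at 10×. Readouts normalized to 0.5% DMSO vehicle, four-parameter logistic fit; POD at one-SD cutoff, 100μM assigned when no response.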

[3] = HUVECs, 0.00 µM = 100.00, read-out: huvec.mtl.18hr
[4] = HUVECs, 0.00 µM = 100.00, read-out: huvec.tlps.18hr
[5] = HUVECs, 0.00 µM = 100.00, read-out: huvec.tta.18hr
[6] = HUVECs, 0.00 µM = 100.00, read-out: huvec.ttl.18hr
[7] = HUVECs, 24 hr, read-out: huvec.cyto.24hr
[8] = HUVECs, 24 hr, read-out: huvec.mito.24hr
[9] = HUVECs, 24 hr, read-out: huvec.mitoint.24hr
[10] = HUVECs, 24 hr, read-out: huvec.nma.24hr
[11] = HUVECs, 24 hrs, read-out: huvec.tc.24hrs

Work on O=C1C=CC(=O)C(c2ccc(Cl)cc2)=C1 [4-Cl-BQ, 2-(4-Chlorophenyl)benzo-2,5-quinone] yielded a minimal effective concentration ([1]; tube formation mtl, read-out: POD huvec.mtl.18hr) of 1.18 µM, a minimal effective concentration ([1]; tube formation tlps, read-out: POD huvec.tlps.18hr) of 5.25 µM and a minimal effective concentration ([1]; tube formation tta, read-out: POD huvec.tta.18hr) of 0.65 µM. For the same molecule, the minimal effective concentration ([1]; tube formation ttl, read-out: POD huvec.ttl.18hr) was 0.25 µM, the activity at 0.01 µM [1, 3] was 108% and the activity at 0.01 µM [1, 4] was 136%. The activity at 0.01 µM [1, 5] was 110%, the activity at 0.01 µM [1, 6] was 98.6% and the activity at 0.1 µM [1, 3] was 104%. The activity at 0.1 µM [1, 4] was 134%, the activity at 0.1 µM [1, 5] was 99.2% and the activity at 0.1 µM [1, 6] was 97.1%. It also gave an activity at 1 µM [1, 3] of 92.4%, an activity at 1 µM [1, 4] of 139% and an activity at 1 µM [1, 5] of 71%. The activity at 1 µM [1, 6] was 68.3%, the activity at 10 µM [1, 3] was 57.7% and the activity at 10 µM [1, 4] was 26.2%. For the same molecule, the activity at 10 µM [1, 5] was 36.4%, the activity at 10 µM [1, 6] was 40% and the activity at 100 µM [1, 3] was 55.2%. For the same molecule, the activity at 100 µM [1, 4] was 14.3%, the activity at 100 µM [1, 5] was 8.95% and the activity at 100 µM [1, 6] was 11.6%. It also gave a minimal effective concentration ([1]; HUVECs, top concentration 100.00 µM, read-out: huvec.mtl.18hr POD) of 1.18 µM, a minimal effective concentration ([1]; HUVECs, top concentration 100.00 µM, read-out: huvec.tlps.18hr POD) of 5.25 µM and a minimal effective concentration ([1]; HUVECs, top concentration 100.00 µM, read-out: huvec.tta.18hr POD) of 0.65 µM. It also gave a minimal effective concentration ([1]; HUVECs, top concentration 100.00 µM, read-out: huvec.ttl.18hr POD) of 0.25 µM, a minimal effective concentration ([2]; cyto, 24 hr, read-out: POD huvec.cyto.24hr) of 0.00637 µM and a minimal effective concentration ([2]; mito, 24 hr, read-out: POD huvec.mito.24hr) of 0.08 µM. It also gave a minimal effective concentration ([2]; mitoint, 24 hr, read-out: POD huvec.mitoint.24hr) of 0.68 µM, a minimal effective concentration ([2]; nma, 24 hr, read-out: POD huvec.nma.24hr) of 0.53 µM and a minimal effective concentration ([2]; tc, 24 hr, read-out: POD huvec.tc.24hr) of 0.00637 µM. It also gave a viability at 0.01 µM [2, 7] of 89.2%, an activity at 0.01 µM [2, 8] of 87.8% and an activity at 0.01 µM [2, 9] of 92.4%. For the same molecule, the activity at 0.01 µM [2, 10] was 101%, the viability at 0.1 µM [2, 7] was 101% and the activity at 0.1 µM [2, 8] was 101%. For the same molecule, the activity at 0.1 µM [2, 9] was 105%, the activity at 0.1 µM [2, 10] was 101% and the viability at 1 µM [2, 7] was 75.5%. It also gave an activity at 1 µM [2, 8] of 69.3%, an activity at 1 µM [2, 9] of 58.6% and an activity at 1 µM [2, 10] of 81.8%. It also gave a viability at 10 µM [2, 7] of 56%, an activity at 10 µM [2, 8] of 30.5% and an activity at 10 µM [2, 9] of 10.8%. For the same molecule, the activity at 10 µM [2, 10] was 74.2%, the viability at 100 µM [2, 7] was 87.4% and the activity at 100 µM [2, 8] was 1.29%. The activity at 100 µM [2, 9] was 44%, the activity at 100 µM [2, 10] was 73.5% and the minimal effective concentration ([2]; HUVECs, 24 hr, top concentration 100.00 µM, read-out: huvec.cyto.24hr POD) was 0.00637 µM. For the same molecule, the minimal effective concentration ([2]; HUVECs, 24 hr, top concentration 100.00 µM, read-out: huvec.mito.24hr POD) was 0.08 µM, the minimal effective concentration ([2]; HUVECs, 24 hr, top concentration 100.00 µM, read-out: huvec.mitoint.24hr POD) was 0.68 µM and the minimal effective concentration ([2]; HUVECs, 24 hr, top concentration 100.00 µM, read-out: huvec.nma.24hr POD) was 0.53 µM. For the same molecule, the viability at 0.01 µM [2, 11] was 89.3%, the viability at 0.1 µM [2, 11] was 101% and the viability at 1 µM [2, 11] was 75.5%. For the same molecule, the viability at 10 µM [2, 11] was 56%, the viability at 100 µM [2, 11] was 99.4% and the minimal effective concentration ([2]; HUVECs, 24 hrs, top concentration 100.00 µM, read-out: huvec.tc.24hrs POD) was 0.00637 µM.
